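All cell lines were grown in 96-well plates and treated with compound for 48 hours. GI50 = concentration required for 50% inhibition of growth.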 The source made the active and inactive calls. Rule as the data show it: active = GI50 up to about 1.1 µM and inactive = higher.
Tests used:
Experiment in all cases: NCI-60 cell line screen, 48 h
[1] = tested on: A549
[2] = tested on: NCI/ADR-RES
[3] = tested on: SK-MEL-5
[4] = tested on: UACC-257
[5] = tested on: SNB-19
[6] = tested on: SF-295
[7] = tested on: OVCAR-5
[8] = tested on: NCI-H460
[9] = tested on: SF-539
[10] = tested on: KM12
[11] = tested on: NCI-H226
[12] = tested on: DU-145
[13] = tested on: SNB-75
[14] = tested on: HCT-15
[15] = tested on: RXF 393
[16] = tested on: NCI-H23
[17] = tested on: NCI-H522
[18] = tested on: MDA-MB-231
[19] = tested on: SR
[20] = tested on: HCC 2998

Row | SMILES | GI50 [1] | GI50 [2] | GI50 [3] | GI50 [4] | GI50 [5] | GI50 [6] | GI50 [7] | GI50 [8] | GI50 [9] | GI50 [10] | GI50 [11] | GI50 [12] | GI50 [13] | GI50 [14] [µM] | GI50 [15] | GI50 [16] | GI50 [17] | GI50 [18] | GI50 [19] | GI50 [20]
1 | CC(C)CNC(=O)O | > 100 µM (inactive) | > 100 µM (inactive) | > 100 µM (inactive) | > 100 µM (inactive) | > 100 µM (inactive) | > 100 µM (inactive) | > 100 µM (inactive) | > 100 µM (inactive) | > 100 µM (inactive) | > 100 µM (inactive) | > 100 µM (inactive) | > 100 µM (inactive) | > 100 µM (inactive) | > 100 | > 100 µM (inactive) | > 100 µM (inactive) | > 100 µM (inactive) | > 100 µM (inactive) | > 100 µM (inactive) | 
2 | CCC(=O)Nc1ncnc2ncn(C(=O)CC)c12 | > 100 µM (inactive) | > 100 µM (inactive) |  | > 100 µM (inactive) | > 100 µM (inactive) | > 100 µM (inactive) | > 100 µM (inactive) | > 100 µM (inactive) |  | > 100 µM (inactive) |  | > 100 µM (inactive) | > 100 µM (inactive) | > 100 | > 100 µM (inactive) | > 100 µM (inactive) | > 100 µM (inactive) | > 100 µM (inactive) | > 100 µM (inactive) | > 100 µM (inactive)
3 | CC(C)(C)c1cc(C(C)(C)C)c2sc(=O)oc2c1O | 13.2 µM (inactive) | 16.3 µM (inactive) | 14.4 µM (inactive) | 5.71 µM (inactive) | 17.3 µM (inactive) | 11.4 µM (inactive) | 18.5 µM (inactive) | 5.61 µM (inactive) | 16.1 µM (inactive) | 14.1 µM (inactive) | 20.2 µM (inactive) | 17.1 µM (inactive) | 13.7 µM (inactive) | 12.4 | 11.9 µM (inactive) |  | 13.7 µM (inactive) | 18.4 µM (inactive) | 4.98 µM (inactive) | 
4 | O=C(O)c1ccc2[nH]c(=O)oc2c1 |  | > 100 µM (inactive) |  | > 100 µM (inactive) | > 100 µM (inactive) | > 100 µM (inactive) | > 100 µM (inactive) | > 100 µM (inactive) | > 100 µM (inactive) | > 100 µM (inactive) | > 100 µM (inactive) | > 100 µM (inactive) | > 100 µM (inactive) | > 100 | > 100 µM (inactive) | > 100 µM (inactive) |  | > 100 µM (inactive) | > 100 µM (inactive) | 
5 | O=C1CCCSCCCC(=O)CCCSCCC1 | > 100 µM (inactive) | > 100 µM (inactive) | > 100 µM (inactive) | > 100 µM (inactive) | > 100 µM (inactive) | > 100 µM (inactive) | > 100 µM (inactive) | > 100 µM (inactive) | > 100 µM (inactive) | > 100 µM (inactive) |  | > 100 µM (inactive) | 93.3 µM (inactive) | > 100 |  | > 100 µM (inactive) | > 100 µM (inactive) | > 100 µM (inactive) | > 100 µM (inactive) | > 100 µM (inactive)
6 | CC[C@H](C)C1=C(O)[N@+]2([O-])Oc3ccc(-c4c(O)c(O)c(-c5ccc(OC(C)=O)cc5)c(OC(C)=O)c4OC(C)=O)cc3O[C@]2([C@@H](C)CC)C(=O)N1O | 16.3 µM (inactive) | 12.9 µM (inactive) | 20 µM (inactive) | > 50 µM (inactive) | 45.3 µM (inactive) | 21.6 µM (inactive) | 47.1 µM (inactive) | 21.5 µM (inactive) | 13.1 µM (inactive) | 29.9 µM (inactive) |  | > 50 µM (inactive) |  | 19.7 | > 50 µM (inactive) | > 50 µM (inactive) | 8.43 µM (inactive) | 21.9 µM (inactive) | 12.5 µM (inactive) | 11.7 µM (inactive)
7 | COP(=O)(OC)[C@@](O)(c1ccccc1)[C@@H](O)[C@@H](O)c1ccccc1 | > 100 µM (inactive) | > 100 µM (inactive) | > 100 µM (inactive) | > 100 µM (inactive) | > 100 µM (inactive) | > 100 µM (inactive) | > 100 µM (inactive) | > 100 µM (inactive) | 33.7 µM (inactive) | > 100 µM (inactive) | > 100 µM (inactive) | > 100 µM (inactive) | > 100 µM (inactive) | > 100 | > 100 µM (inactive) | > 100 µM (inactive) | 37.4 µM (inactive) | > 100 µM (inactive) | 0.531 µM (active) | 
